The text below walks through data of publication PMC9834664, “Linking medicinal cannabis to autotaxin–lysophosphatidic acid signaling” (Life Science Alliance, 2023).

In one data set the target is CB2. The following applies: cited from earlier work.
In the next data set the target is CB1. The following applies: cited from earlier work.
Data set [1] addresses T1, ATX-β (Homo sapiens, UniProt Q13822).
T1 construct: made in house; host or cells: HEK293-Flp-In cells, protein purified from the culture medium
Put plainly: End-point choline release assay, relative inhibition by cannabinoids. In kind it is biochemical. The following applies: 10 µM compound; for inhibition of ATX-β catalysis: LPC 18:1 200 µM; for ANOVA comparison with CTRL, ATX-β inhibition: significance threshold P 0.005. The protocol:
(§1) We first set out to validate the hypothesis that cannabinoids might bind ATX to modulate its catalytic function. For this, we used various cannabinoids (Fig 1A) at a fixed concentration of 10 µM for each compound in our biochemical validation with LPC 18:1 (200 µM) as substrates in an end-point assay for ATX-β (UniProt ID: Q13822-1) and ATX-γ (UniProt ID: Q13822-3) (Fig 1B and C). […] In addition, we can exclude interference of the cannabinoid compounds in our enzymatically coupled assay, as no difference is detectable in the absence of ATX and LPC (Fig S1B), performed in the presence of choline.
(§2) ATX lysophospholipase D activity was measured using choline release from LPC 18:1 and LPC 16:0 with a choline quantification kit ([Hausmann et al, 2016]) (Fig S6D). 30 nM ATX-β or ATX-γ was incubated with 200 µM LPC 18:1 or LPC 16:0 in a final volume of 100 µl buffer, which contained 50 mM Tris–HCl (pH 8.5) and 150 mM NaCl. The LPC solution was obtained by evaporating a commercial LPC chloroform solution directly in a 1.5-ml Eppendorf tube under vacuum. The dried LPC was then resuspended in water to obtain the mentioned concentration and incubated at 37°C on a shaker for 5–10 min before addition to the microplate. The cannabinoid solutions were prepared from a stock solution in ethanol or other organic solvents. After initial evaporation and/or dilution to obtain the highest concentration mentioned in the assay figure, a twofold dilution was performed in Eppendorf tubes. All the compounds were dissolved in 100% ethanol as a vehicle.
(§3) The experiments for determining relative inhibition for various cannabinoids were performed at 37°C by adding 10 µM of the cannabinoid or endocannabinoid mentioned. Released choline was detected, and the enzyme activity was determined by measuring fluorescence at λex/λem = 540/590 nm in 96-well plates, every 60 s for 50 min minimum using a CLARIOstar plate reader (BMG Labtech). Absolute values were taken at 25 min after visual inspection, and the 0-min baselines were subtracted to account for compound differences. The relative inhibition values were determined using the normalize method in GraphPad Prism (GraphPad Software, Inc.). Measurements have been performed in triplicate with three different protein preparations. All the compounds were controlled for interference of fluorescence and inhibition in the same assay conditions but in the absence of ATX and replacing LPC with choline.

The target in data set [2] is T2, ATX-γ (Homo sapiens, UniProt Q13822).
T2 construct: made in house; host or cells: HEK293-Flp-In cells, protein purified from the culture medium
Described as above. The following applies: 10 µM compound; for inhibition of ATX-γ catalysis: LPC 18:1 200 µM; for ANOVA comparison with CTRL, ATX-γ inhibition: significance threshold P 0.005. In kind it is biochemical. As to the method:
as §1, §2, §3

In data set [3] the test system is LPA1 receptor internalization in HA/LPA1-transfected HeLa cells. Put plainly: hLPA1 receptor internalization assay. In kind it is cell-based, human.
For data set [4] the following is noted: ref Hunault et al, 2008, cited from earlier work.
Data set [5] concerns the target T1, ATX-β. Nature of the data set: Dose–response choline release assay. In kind it is biochemical. The following applies: LPC 18:1. As to the method: (§4) ATX lysophospholipase D activity was measured using choline release from LPC 18:1 and LPC 16:0 with a choline quantification kit ([Hausmann et al, 2016]). 30 nM ATX-β or ATX-γ was incubated with 200 µM LPC 18:1 or LPC 16:0 in a final volume of 100 µl buffer, which contained 50 mM Tris–HCl (pH 8.5) and 150 mM NaCl. The LPC solution was obtained by evaporating a commercial LPC chloroform solution directly in a 1.5-ml Eppendorf tube under vacuum. The dried LPC was then resuspended in water to obtain the mentioned concentration and incubated at 37°C on a shaker for 5–10 min before addition to the microplate.
(§5) The experiment for determining apparent EC50 for various cannabinoids was performed at 37°C by adding the cannabinoid in a serial twofold dilution for each concentration. The cannabinoid solutions were prepared from a stock solution in ethanol or other organic solvents. After initial evaporation and/or dilution to obtain the highest concentration mentioned in the assay figure, a twofold dilution was performed in Eppendorf tubes. All the compounds were dissolved in 100% ethanol as a vehicle. […] For CBN, 5-DMH-CBD, and CBD, the starting concentration was 50 µM, 150 µM, and 2 mM, respectively. Released choline was detected, and the enzyme activity was determined by measuring fluorescence at λex/λem = 540/590 nm in 96-well plates, every 60 s for 50 min minimum using a CLARIOstar plate reader (BMG Labtech). Initial velocities were taken between 19 and 31 min after visual inspection. The apparent EC50 values were determined using the non-linear regression analysis method (fit: [inhibitor] versus response [three parameter]) in GraphPad Prism (GraphPad Software, Inc.). However, it should be mentioned that the relative concentrations of the different lipids/inhibitors in their physical form as micelles, liposomes, protein-bound, or aggregates are unknown ([Carman et al, 1995]). These uncertainties are widely known, and we provide here an apparent EC50 for consideration. Measurements have been performed in triplicate with three different protein preparations. […]

The target of data set [6] is T2, ATX-γ. Put plainly: Dose–response choline release assay. In kind it is biochemical. The following applies: LPC 18:1. As to the method:
as §4, §5

For data set [7] the following is noted: no reference given; cited from earlier work.
The target in data set [8] is T2, ATX-γ. Put plainly: Mode of inhibition analysis with increasing LPC 18:1. Format: biochemical. More on the design: Vmax: unit not given here.

Entries after “also recorded” stand apart in the source; their conditions may differ. Some results are limits rather than exact numbers.

As a reminder, the Ki is the dissociation constant of the complex between target and ligand, obtained from inhibition or displacement. For orientation: Km means the substrate concentration at which the rate is half of its maximum.

`CCCCCn1cc(C(=O)c2cccc3ccccc23)c2ccccc21` [JWH018]: the Ki on CB2 (CB2, ref Aung et al, 2000) is 2.9 ± 2.7 nM. For the same compound, the Ki at CB1 (CB1, ref Aung et al, 2000) is 9 ± 8 nM. On ATX-β [1], the “inhibition of ATX-β catalysis” value is “did not influence the catalytic activity” and the “ANOVA comparison with CTRL, ATX-β inhibition” value was “not significantly inhibited”. Also, at ATX-γ [2], the “inhibition of ATX-γ catalysis” value is recorded as “did not influence the catalytic activity” and the “ANOVA comparison with CTRL, ATX-γ inhibition” value is “not significantly inhibited”.

Consider `CCCCCc1cc(O)c2c(c1)OC(C)(C)C1=C2C[C@H](C)CC1` [6a10aTHC, 9(R)-Δ6a,10a-THC], for which, on ATX-β [1], the “inhibition of ATX-β catalysis” value is “further increase in the magnitude of inhibition” and the “ANOVA comparison with CTRL, ATX-β inhibition” value is “statistically significant differences”. Further, the “inhibition of ATX-γ catalysis” value on ATX-γ [2] was “further increase in the magnitude of inhibition”.

For `CCCCCc1cc2c(c(O)c1C(=O)O)[C@@H]1C=C(C)CC[C@H]1C(C)(C)O2` [Tetrahydrocannabinolic acid, tetrahydrocannabinolic acid], at ATX-β [1], the “inhibition of ATX-β catalysis” value is given as less than 50% and the “ANOVA comparison with CTRL, ATX-β inhibition” value is listed as “statistically significant differences”. Moreover, the “inhibition of ATX-γ catalysis” value at ATX-γ [2] is reported as less than 50%.

In the case of `CCCCC/C=C\C/C=C\C/C=C\C/C=C\CCCC(=O)NCCO` [anandamide], at ATX-β [1], the “inhibition of ATX-β catalysis” value is given as “did not affect the catalysis” and the “ANOVA comparison with CTRL, ATX-β inhibition” value is reported as “not significantly inhibited”. For the same compound, on ATX-γ [2], the “inhibition of ATX-γ catalysis” value is reported as “did not affect the catalysis” and the “ANOVA comparison with CTRL, ATX-γ inhibition” value was “not significantly inhibited”.

In the case of `CCCCC/C=C\C/C=C\C/C=C\C/C=C\CCCC(=O)OC(CO)CO` [2-AG, 2-arachidonoylglycerol], at ATX-β [1], the “inhibition of ATX-β catalysis” value was “did not affect the catalysis” and the “ANOVA comparison with CTRL, ATX-β inhibition” value is “not significantly inhibited”. In addition, on ATX-γ [2], the “inhibition of ATX-γ catalysis” value is recorded as “did not affect the catalysis” and the “ANOVA comparison with CTRL, ATX-γ inhibition” value is on record as “not significantly inhibited”.

As to lysophosphatidic acid [LPA], the LPA1 internalization entry in data set [3] (LPA treatment of cells (1 µM LPA 18:1)) is listed as “high LPA1 receptor internalization”.

Consider `CCCCCc1cc(O)c2c(c1)OC(C)(C)[C@@H]1CCC(C)=C[C@@H]21` [THC, Δ^9-trans-tetrahydrocannabinol], for which the “mean THC peak in serum” value in data set [4] (69.4-mg THC dose, SD = 106.8) was 190.4 ng/mL. Further, the “serum concentration of THC, lower end of range in molar units” value in [4] (after a 49.1-mg THC dose, equals 59 ng/ml) is recorded as 190 nM. Besides, in data set [4] (after a 49.1-mg THC dose, equals 421 ng/ml), the “serum concentration of THC, upper end of range in molar units” value was 1.3 µM. The “binding to CB2” value in the data set on CB2 (ref Pertwee, 2008) is given as “low nanomolar regime”. In addition, the “magnitude of inhibition (maximum inhibition)” value at ATX-β [5] is reported as “around 60%”. The type of inhibitor result at ATX-β [5] and at ATX-γ [6] was “partial inhibitor” in each case. Moreover, the “binding to CB1” value in the data set with CB1 (ref Pertwee, 2008) is listed as “low nanomolar regime”. Besides, the LPA1 internalization entry in data set [3] (30 nM ATX, 150 µM LPC 18:1, 1 µM THC, paired t test P = 0.0008) was “significantly reduced LPA1 internalization; also recorded: reduced the number of endosomes internalized”; in data set [3] (LPA in the presence of THC), “LPA1 receptors were internalized”; in [3] (THC alone (1 µM)), “No internalization”. Further, in [3] (higher LPC concentration, 400 µM LPC, P = 0.0068), the “inhibition of ATX-LPA signaling (LPA1 internalization)” value is recorded as “not abolished”. Also, in data set [7], the “bound to plasma proteins” value is on record as 95–97%. Besides, the “inhibition of ATX-β catalysis” value on ATX-β [1] is “more than 50%”. The “ANOVA comparison with CTRL, ATX-β inhibition” value at ATX-β [1] is “statistically significant differences”. The “inhibition of ATX-γ catalysis” value at ATX-γ [2] is recorded as “more than 50%”. Moreover, the Vmax is given as 7.3 at ATX-γ [8] (0.35 µM THC (8.5 without THC)), 6.3 on ATX-γ [8] (0.7 µM THC (8.5 without THC)) and 5.0 at ATX-γ [8] (1.4 µM THC (8.5 without THC)). Moreover, the Michaelis constant (Km) amounted to 19.6 µM at ATX-γ [8] (0.35 µM THC (10.1 without THC)), 29.9 µM at ATX-γ [8] (0.7 µM THC (10.1 without THC)) and 31.5 µM on ATX-γ [8] (1.4 µM THC (10.1 without THC)). Further, the mode of inhibition entry on ATX-γ [8] (ATX-γ, LPC 18:1) is given as “mixed-type inhibition; also recorded: mixed-type inhibitor”.

In the case of `C=C(C)[C@@H]1CCC(C)=C[C@H]1c1c(O)cc(CCCCC)cc1O` [CBD, cannabidiol], at ATX-β [1], the “inhibition of ATX-β catalysis” value was “weak inhibition” and the “ANOVA comparison with CTRL, ATX-β inhibition” value was “statistically significant differences”. In addition, the “inhibition of ATX-γ catalysis” value at ATX-γ [2] is listed as “no observable inhibition”.
